According to publication PMC12348660, “Synthesis, Characterization, HSA/DNA Binding, and Cytotoxic Activity of [RuCl2(η^6-p-cymene)(bph-κN)] Complex” (Molecules, 2025):

Biological target: T1, human serum albumin (HSA) (Homo sapiens, UniProt P02768)
T1 construct: gene ALB
Assay: intrinsic tryptophan fluorescence quenching titration (Stern-Volmer, double-log), […]-310 K
Type: binding
Conditions: read-out: Kb [M^-1] (converted)

T1 sequence (P02768 25-609): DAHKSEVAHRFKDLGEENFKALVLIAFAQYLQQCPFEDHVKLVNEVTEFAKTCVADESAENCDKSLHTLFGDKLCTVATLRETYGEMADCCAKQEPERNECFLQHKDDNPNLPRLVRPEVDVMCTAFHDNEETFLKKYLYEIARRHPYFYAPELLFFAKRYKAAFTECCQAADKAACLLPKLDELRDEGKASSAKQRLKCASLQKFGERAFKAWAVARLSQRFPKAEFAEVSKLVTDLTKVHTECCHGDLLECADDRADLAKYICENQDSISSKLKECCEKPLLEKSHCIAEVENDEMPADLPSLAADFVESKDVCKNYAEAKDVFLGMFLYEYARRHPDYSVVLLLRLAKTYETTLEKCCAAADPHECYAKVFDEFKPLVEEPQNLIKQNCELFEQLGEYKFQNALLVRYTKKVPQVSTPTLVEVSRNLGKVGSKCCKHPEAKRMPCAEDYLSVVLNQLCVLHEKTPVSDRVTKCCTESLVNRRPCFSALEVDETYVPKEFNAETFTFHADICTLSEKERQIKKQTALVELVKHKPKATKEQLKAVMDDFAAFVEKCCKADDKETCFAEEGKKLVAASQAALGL

## dichlorido((diphenylmethylidene)hydrazine-κN)(η^6-p-cymene)ruthenium(II) [compound 1]
  Kd: 60.6 µM
